Among the data in article PMC12557437, “Research towards selective inhibition of the CLK3 kinase” (Beilstein Journal of Organic Chemistry, 2025) are IC50 values, retold here.

Each structure is given as a SMILES string.

The target in one test is Rn_DYRK1A (Rattus norvegicus, UniProt Q63470). The test can be described thus: radiometric γ33P-ATP kinase assay (Eurofins). It counts as biochemical. The note with it: 15 µM ATP; dose-response, points in duplicate. On the procedure: (§1) Finally, in order to complete our profiling of VS-77, we then measured its activity against the DYRK 1A, DYRK1B and DYRK2 kinases and the results are reported in Table 3.
(§2) 2- Kinase inhibition studies
(§3) Kinase enzymatic activities were assayed using both luminescent ADP detection assay
(§4) (ADP-GloTM assay kit, Promega, Madison, WI) or radiometric kinase assay. These
(§5) assays were performed using the protocols described in our previous publication. […]
(§6) 1.Brahmaiah, D.; Kanaka Durga Bhavani, A.; Aparna, P.; Sampath Kumar, N.; Solhi,
(§7) H.; Le Guevel, R.; Baratte, B.; Ruchaud, S.; Bach, S.; Singh Jadav, S.; Raji Reddy, C.;
(§8) Roisnel, T.; Mosset, P.; Levoin, N.; Grée, R. Bioorg.
(§9) R.; Baratte, B.; Robert, T.; Ruchaud, S.; Bach, S.; Jadav, S. S.; Reddy, C. R.; Mosset,
(§10) P.; Gouault, N.; Levoin, N.; Grée, R. Molecules 2022, 27, 6149. […]

For a further test, the target named is T1, Hs_DYRK2 (Homo sapiens, UniProt Q92630).
T1 construct: purchased Eurofins, UK
T1 sequence (Q92630 whole entry): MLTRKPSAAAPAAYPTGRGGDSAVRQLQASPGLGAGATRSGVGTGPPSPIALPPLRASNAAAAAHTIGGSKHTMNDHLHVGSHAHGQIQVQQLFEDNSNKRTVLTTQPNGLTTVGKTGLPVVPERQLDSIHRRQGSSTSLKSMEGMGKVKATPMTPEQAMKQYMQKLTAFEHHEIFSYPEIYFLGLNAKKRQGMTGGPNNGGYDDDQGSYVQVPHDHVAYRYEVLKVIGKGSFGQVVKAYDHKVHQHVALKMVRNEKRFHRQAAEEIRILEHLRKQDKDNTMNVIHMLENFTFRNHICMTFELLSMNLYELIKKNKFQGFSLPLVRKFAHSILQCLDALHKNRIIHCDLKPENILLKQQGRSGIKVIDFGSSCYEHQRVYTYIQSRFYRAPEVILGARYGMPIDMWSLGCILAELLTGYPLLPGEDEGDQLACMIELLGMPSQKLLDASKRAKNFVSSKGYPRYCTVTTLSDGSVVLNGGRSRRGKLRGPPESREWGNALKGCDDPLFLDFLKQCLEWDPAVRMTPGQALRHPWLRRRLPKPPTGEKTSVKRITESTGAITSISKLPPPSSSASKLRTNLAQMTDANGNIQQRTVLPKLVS
The test can be described thus: radiometric γ33P-ATP kinase assay (Eurofins). The class given is biochemical. Conditions: 15 µM ATP; dose-response, points in duplicate. On the procedure:
as §1, §2, §3, §4, §5, §6, §7, §8, §9, §10

In the next test the target is T2, Hs_DYRK1A (Homo sapiens, UniProt Q13627).
T2 construct: purchased Eurofins, UK
The test can be described thus: radiometric γ33P-ATP kinase assay (Eurofins). The class given is biochemical. Conditions: 15 µM ATP; dose-response, points in duplicate. On the procedure: as §1, §2, §3, §4, §5, §6, §7, §8, §9, §10

Another test deals with T3, Hs_DYRK1B (Homo sapiens, UniProt Q9Y463).
T3 construct: purchased Eurofins, UK
T3 sequence (Q9Y463 whole entry): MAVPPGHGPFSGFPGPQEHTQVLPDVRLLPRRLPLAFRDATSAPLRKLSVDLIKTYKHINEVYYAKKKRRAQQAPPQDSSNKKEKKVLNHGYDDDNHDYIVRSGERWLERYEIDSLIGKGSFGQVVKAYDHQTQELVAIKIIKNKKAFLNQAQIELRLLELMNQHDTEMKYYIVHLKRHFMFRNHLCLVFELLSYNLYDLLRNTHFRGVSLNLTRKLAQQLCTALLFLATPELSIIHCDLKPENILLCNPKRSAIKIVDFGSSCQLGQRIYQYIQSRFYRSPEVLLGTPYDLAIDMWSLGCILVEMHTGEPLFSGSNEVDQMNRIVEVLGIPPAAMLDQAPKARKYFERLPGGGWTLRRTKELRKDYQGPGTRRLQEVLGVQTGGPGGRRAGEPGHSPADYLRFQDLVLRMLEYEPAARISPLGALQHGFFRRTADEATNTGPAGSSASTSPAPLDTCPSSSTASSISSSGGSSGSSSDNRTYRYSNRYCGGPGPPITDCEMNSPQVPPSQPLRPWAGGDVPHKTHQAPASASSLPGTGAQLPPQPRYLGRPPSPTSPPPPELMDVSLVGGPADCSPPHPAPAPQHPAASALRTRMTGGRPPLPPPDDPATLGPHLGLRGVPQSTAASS
Kind of test: radiometric γ33P-ATP kinase assay (Eurofins). It counts as biochemical. The note with it: 15 µM ATP; dose-response, points in duplicate. As for the experimental part:
as §1, §2, §3, §4, §5, §6, §7, §8, §9, §10

The next test has as its target CLK1, CLK2, and CLK4. Kind of test: radiometric kinase assay, summary for the other CLKs. The class given is biochemical, mouse. The note with it: Table 2; read-out: inhibition of CLK1, CLK2, and CLK4 (best value). The source says: The results are reported in Table 2 and in Supporting Information File 1.

Turning to `Cc1ccc(-n2cc(COc3cccc4cnc(Nc5cc(Cl)cc(-c6cccc(C(=O)O)c6)c5)nc34)nn2)c([N+](=O)[O-])c1` [Compound 13b], the IC50 on Rn_DYRK1A amounted to 14.8 µM; at Hs_DYRK2 it was 11.7 µM; at Hs_DYRK1A, 5.31 µM; on Hs_DYRK1B it was 4.6 µM; on CLK1, CLK2, and CLK4, 0.06 µM.
